# Data published in patent US20260042764A1, “COMPOSITIONS AND METHODS FOR INHIBITION OF KRAS” (TheRas, Inc., priority 2022, published 2026).
# Key:
# SW620 cells (KRAS G12V) = test: Cell-based pERK HTRF assay in SW620 cell (Biological Example 4); conditions: pERK HTRF
# Outline: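 Read-out: HTRF pERK signal (excitation 320 nm, emission 615 nm) from lysates of SW620 cells after 4 h compound exposure. Dose range was 9 points, half-log steps from 1 μM, in 0.25% DMSO; antibody incubation ran 4–24 h at room temperature.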
# [1] = molecular target: T1, Avi-KRAS WT (1-169) GppNHp/RAF1 RBD-3xFLAG (52-151) (Homo sapiens, UniProt P01116); test: Raf1-KRAS WT-GppNHP disruption HTRF assay (Biological Example 1); assay type: binding
# T1 construct: Avi-KRAS WT (1-169)
# Outline: (§1)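 Percent activity versus DMSO (100%) was derived from HTRF signal after KRAS–RAF1 RBD protein mix was incubated 1 h at room temperature with shaking and detection reagents were added for a further 1 h.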
# GP2d cells (KRAS G12D) = test: Cell-based pERK HTRF assay in GP2d cell (Biological Example 2); conditions: GP2d (KRAS G12D) cells, pERK HTRF
# Outline: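 Cells grown in DMEM with 10% FBS were exposed to compound for 60 min at 0.25% DMSO, using a 9-point half-log series starting at 1 μM or 100 nM. Lysates were then mixed with d2 and Eu cryptate antibodies for 4–24 h at room temperature, and pERK was read by HTRF.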
# [2] = molecular target: T2, Avi-KRAS G12R (1-169) GppNHp/RAF1 RBD-3xFLAG (52-151) (Homo sapiens, UniProt P01116, G12R); test: Raf1-KRAS G12R-GppNHP disruption HTRF assay (Biological Example 1); assay type: binding
# T2 construct: Avi-KRAS G12R (1-169)
# Outline: as §1
# [3] = molecular target: T3, Avi-KRAS G12D (1-169) GppNHp/RAF1 RBD-3xFLAG (52-151) (Homo sapiens, UniProt P01116, G12D); test: Raf1-KRAS G12D-GppNHP disruption HTRF assay (Biological Example 1); assay type: binding
# T3 construct: Avi-KRAS G12D (1-169)
# Outline: as §1
# [4] = molecular target: T4, Avi-KRAS G12V (1-169) GppNHp/RAF1 RBD-3xFLAG (52-151) (Homo sapiens, UniProt P01116, G12V); test: Raf1-KRAS G12V-GppNHP disruption HTRF assay (Biological Example 1); assay type: binding
# T4 construct: Avi-KRAS G12V (1-169)
# Outline: as §1
# [5] = Homo sapiens, SW-620, SW620 (KRAS G12V) cells, class symbols
# [6] = KRAS WT, GppNHp-loaded, class symbols
# [7] = KRAS G12R, GppNHp-loaded, class symbols
# [8] = KRAS G12D, GppNHp-loaded, class symbols
# [9] = KRAS G12V, GppNHp-loaded, class symbols
# [10] = Homo sapiens, SW-620, SW620 (KRAS G12V) cells
# [11] = KRAS WT, GppNHp-loaded, Table 11
# [12] = KRAS G12R, GppNHp-loaded, Table 11
# [13] = KRAS G12D, GppNHp-loaded, Table 11
# [14] = KRAS G12V, GppNHp-loaded, Table 11
# T2 sequence (P01116 1-169 isoform P01116-2 G12R): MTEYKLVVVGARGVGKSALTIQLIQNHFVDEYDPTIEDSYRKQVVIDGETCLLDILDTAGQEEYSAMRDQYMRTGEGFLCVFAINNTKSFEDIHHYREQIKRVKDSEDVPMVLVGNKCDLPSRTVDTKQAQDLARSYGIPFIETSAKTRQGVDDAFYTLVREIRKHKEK
# T1 sequence (P01116 1-169 isoform P01116-2): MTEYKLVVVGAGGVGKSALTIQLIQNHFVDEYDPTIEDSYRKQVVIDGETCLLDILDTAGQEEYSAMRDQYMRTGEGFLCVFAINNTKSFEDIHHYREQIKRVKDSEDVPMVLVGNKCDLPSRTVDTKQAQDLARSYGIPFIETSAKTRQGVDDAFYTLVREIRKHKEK
# T4 sequence (P01116 1-169 isoform P01116-2 G12V): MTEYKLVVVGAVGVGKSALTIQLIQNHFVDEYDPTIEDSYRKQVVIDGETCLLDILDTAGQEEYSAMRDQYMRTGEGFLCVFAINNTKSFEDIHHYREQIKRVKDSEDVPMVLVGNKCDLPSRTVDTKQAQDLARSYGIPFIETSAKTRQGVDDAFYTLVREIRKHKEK
# T3 sequence (P01116 1-169 isoform P01116-2 G12D): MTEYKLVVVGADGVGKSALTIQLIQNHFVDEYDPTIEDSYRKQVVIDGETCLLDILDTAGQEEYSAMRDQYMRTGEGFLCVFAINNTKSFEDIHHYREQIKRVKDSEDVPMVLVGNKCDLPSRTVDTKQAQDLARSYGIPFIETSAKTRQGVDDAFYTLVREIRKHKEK
Structure (SMILES),IC50 (SW620 cells (KRAS G12V); [5]) [nM],"IC50 [1, 6] [nM]","IC50 (GP2d cells (KRAS G12D); GP2d, class symbols) [nM]","IC50 [2, 7] [nM]","IC50 [3, 8] [nM]","IC50 [4, 9] [nM]",IC50 (SW620 cells (KRAS G12V); [10]) [nM],IC50 ([1]; KRAS WT-GppNHp/RAF1 RBD HTRF) [nM],IC50 (GP2d cells (KRAS G12D); GP2d) [nM],IC50 ([2]; KRAS G12R-GppNHp/RAF1 RBD HTRF) [nM],IC50 ([3]; KRAS G12D-GppNHp/RAF1 RBD HTRF) [nM],IC50 ([4]; KRAS G12V-GppNHp/RAF1 RBD HTRF) [nM],further results
CN(c1nc(OC[C@@]23CCCN2C[C@H](F)C3)nc2c(F)c(-c3ccc(F)c4sc(N)c(C#N)c34)c(C(F)(F)F)cc12)[C@H]1CC[C@@H](O)C1 [Compound 309],,,,,,,< 100,100 to 1000,< 100,100 to 1000,100 to 1000,100 to 1000,
"CCN(c1nc(OC[C@@]23CCCN2C[C@H](F)C3)nc2c(F)c(-c3ccc(F)c4sc(N)c(C#N)c34)c(C(F)(F)F)cc12)[C@H]1C[C@H]2CCN(C)C(=O)N2C1 (atropisomer, axis not shown) [Compound 666]",< 100,< 100,< 100,< 100,< 100,< 100,,,,,,,
"COC(=O)N1CC[C@H](N(C)c2nc(OC[C@@]34CCCN3C[C@H](F)C4)nc3c(F)c(-c4ccc(F)c5sc(N)c(C#N)c45)c(C(F)(F)F)cc23)C1 (atropisomer, axis not shown) [Compound 756]",< 100,< 100,< 100,< 100,< 100,< 100,,,,,,,
CC(C)C(=O)N1CC[C@@H](N(C)c2nc(OC[C@@]34CCCN3C[C@H](F)C4)nc3c(F)c(-c4ccc(F)c5sc(N)c(C#N)c45)c(C(F)(F)F)cc23)[C@H]1C [Compound 261],,,,,,,< 100,,< 100,,,,"IC50 [1, 11]: < 100 nM; IC50 [2, 12]: 100 to 1000 nM; IC50 [3, 13]: 100 to 1000 nM; IC50 [4, 14]: 100 to 1000 nM"
C[C@@H]1[C@H](N(C)c2nc(OC[C@@]34CCCN3C[C@H](F)C4)nc3c(F)c(-c4ccc(F)c5sc(N)c(C#N)c45)c(C(F)(F)F)cc23)CCN1C(=O)N(C)C [Compound 409],,,,,,,< 100,100 to 1000,< 100,100 to 1000,100 to 1000,100 to 1000,
"CCN(c1nc(OC[C@@]23CCCN2C[C@H](F)C3)nc2c(F)c(-c3ccc(F)c4sc(N)c(C#N)c34)c(C(F)(F)F)cc12)[C@@H]1CC(=O)N(CC(F)F)C1 (atropisomer, axis not shown) [Compound 612]",< 100,< 100,< 100,< 100,< 100,< 100,,,,,,,
"CCN(C)C(=O)N1CC[C@H](N(CC)c2nc(OC[C@@]34CCCN3C[C@H](F)C4)nc3c(F)c(-c4ccc(F)c5sc(N)c(C#N)c45)c(C(F)(F)F)cc23)C1 (atropisomer, axis not shown) [Compound 582]",< 100,< 100,< 100,< 100,< 100,< 100,,,,,,,
"CCN1CC[C@@H](N(CC)c2nc(OC[C@@]34CCCN3C[C@H](F)C4)nc3c(F)c(-c4ccc(F)c5sc(N)c(C#N)c45)c(C(F)(F)F)cc23)C1=O (atropisomer, axis not shown) [Compound 695]",< 100,100 to 1000,< 100,100 to 1000,100 to 1000,100 to 1000,,,,,,,
"CCN(c1nc(OC[C@@]23CCCN2C[C@H](F)C3)nc2c(F)c(-c3ccc(F)c4sc(N)c(C#N)c34)c(C(F)(F)F)cc12)[C@H]1CCN(C(C)=O)[C@@H]1C (atropisomer, axis not shown) [Compound 591]",< 100,< 100,< 100,< 100,< 100,< 100,,,,,,,
"CCN(c1nc(OC[C@@]23CCCN2C[C@H](F)C3)nc2c(F)c(-c3ccc(F)c4sc(N)c(C#N)c34)c(C(F)(F)F)cc12)[C@H]1CCN(C(=O)[C@H]2CCO2)[C@@H]1C (atropisomer, axis not shown) [Compound 805]",< 100,< 100,< 100,< 100,< 100,< 100,,,,,,,
N#Cc1c(N)sc2c(F)ccc(-c3c(C(F)(F)F)cc4c(N5CCn6nccc6C5)nc(OC[C@@]56CCCN5C[C@H](F)C6)nc4c3F)c12 [Compound 233],,,,,,,,,,,,,"IC50 (SW620 cells (KRAS G12V); SW620 (KRAS G12V) cells): < 100 nM; IC50 [1, 11]: 100 to 1000 nM; IC50 (GP2d cells (KRAS G12D)): < 100 nM; IC50 [2, 12]: 100 to 1000 nM; IC50 [3, 13]: 100 to 1000 nM; IC50 [4, 14]: 1000 to 10000 nM"
"CCN(c1nc(OC[C@@]23CCCN2C[C@H](F)C3)nc2c(F)c(-c3ccc(F)c4sc(N)c(C#N)c34)c(C(F)(F)F)cc12)[C@H]1C[C@@H](C)N(C(=O)N2CC(F)C2)C1 (atropisomer, axis not shown) [Compound 782]",< 100,100 to 1000,< 100,100 to 1000,100 to 1000,100 to 1000,,,,,,,
"CCC(=O)N1C[C@@H](N(CC)c2nc(OC[C@@]34CCCN3C[C@H](F)C4)nc3c(F)c(-c4ccc(F)c5sc(N)c(C#N)c45)c(C(F)(F)F)cc23)C[C@@H]1COC (atropisomer, axis not shown) [Compound 648]",< 100,100 to 1000,< 100,< 100,< 100,< 100,,,,,,,
"CCN(c1nc(OC[C@@]23CCCN2C[C@H](F)C3)nc2c(F)c(-c3ccc(F)c4sc(N)c(C#N)c34)c(C(F)(F)F)cc12)[C@@H]1C[C@H](C)N(C(=O)OC)C1 (atropisomer, axis not shown) [Compound 544]",,,,,,,< 100,100 to 1000,< 100,100 to 1000,100 to 1000,100 to 1000,

# Now from value to compound, other results behind:
IC50 (SW620 cells (KRAS G12V); [5]) [nM],"IC50 [1, 6] [nM]","IC50 (GP2d cells (KRAS G12D); GP2d, class symbols) [nM]","IC50 [2, 7] [nM]","IC50 [3, 8] [nM]","IC50 [4, 9] [nM]",IC50 (SW620 cells (KRAS G12V); [10]) [nM],IC50 ([1]; KRAS WT-GppNHp/RAF1 RBD HTRF) [nM],IC50 (GP2d cells (KRAS G12D); GP2d) [nM],IC50 ([2]; KRAS G12R-GppNHp/RAF1 RBD HTRF) [nM],IC50 ([3]; KRAS G12D-GppNHp/RAF1 RBD HTRF) [nM],IC50 ([4]; KRAS G12V-GppNHp/RAF1 RBD HTRF) [nM],Structure (SMILES),further results
< 100,1000 to 10000,< 100,100 to 1000,1000 to 10000,100 to 1000,,,,,,,CC1c2cc(C(=O)N(C)C)nn2CCN1c1nc(OCC23CCCN2CC(F)C3)nc2c(F)c(-c3ccc(F)c4sc(N)c(C#N)c34)c(C(F)(F)F)cc12 (stereo not drawn) [Compound 568],
,,,,,,100 to 1000,100 to 1000,< 100,100 to 1000,100 to 1000,100 to 1000,N#Cc1c(N)sc2c(F)ccc(-c3c(C(F)(F)F)cc4c(N5CCn6nc(C(=O)N7CC(O)C7)cc6C5)nc(OC[C@@]56CCCN5C[C@H](F)C6)nc4c3F)c12 [Compound 502],
,,,,,,< 100,100 to 1000,< 100,100 to 1000,100 to 1000,100 to 1000,CN(C)C(=O)c1cn2c(n1)CN(c1nc(OC[C@@]34CCCN3C[C@H](F)C4)nc3c(F)c(-c4ccc(F)c5sc(N)c(C#N)c45)c(C(F)(F)F)cc13)CC2 [Compound 419],
,,,,,,< 100,100 to 1000,< 100,100 to 1000,< 100,100 to 1000,CN(C)C(=O)c1nc2n(n1)CCN(c1nc(OC[C@@]34CCCN3C[C@H](F)C4)nc3c(F)c(-c4ccc(F)c5sc(N)c(C#N)c45)c(C(F)(F)F)cc13)C2 [Compound 356],
,,,,,,100 to 1000,100 to 1000,< 100,100 to 1000,100 to 1000,1000 to 10000,CC(=O)N1C[C@@H]2OCCN(c3nc(OC[C@@]45CCCN4C[C@H](F)C5)nc4c(F)c(-c5ccc(F)c6sc(N)c(C#N)c56)c(C(F)(F)F)cc34)[C@@H]2C1 [Compound 481],
,,,,,,< 100,1000 to 10000,< 100,1000 to 10000,1000 to 10000,1000 to 10000,N#Cc1c(N)sc2c(F)ccc(-c3c(C(F)(F)F)cc4c(N5C[C@@H]6[C@H]5CCN6C(=O)C5CC5)nc(OC[C@@]56CCCN5C[C@H](F)C6)nc4c3F)c12 [Compound 535],
